Literature values as cited in patent US10709795B2, “Method for delivering pharmaceutical nanoparticles to cancer cells” (National Guard Health Affairs, priority 2017, dated 2020).
Read-outs that look alike come from different tables or passages of the source.

How the values were obtained:
[1] = not given; remark: listed apart in the source
[2] = Grades 1-4, N = 2448, 1st line of this name
[3] = Grades 1-4, N = 2448, 2nd line of this name

water solubility (in words): water insoluble
Endometrial Hyperplasia/Cancer, % ([1]; Grades 1-4, 1st line of this name): 0.8%
Endometrial Hyperplasia/Cancer, % ([1]; Grades 1-4, 2nd line of this name): 0.3%
Alopecia, % ([1]; Grades 1-4, N = 2448): 3.4%
Angina, % ([1]; Grades 1-4, N = 2448): 1.3%
Angine, % ([1]; Grades 1-4, N = 2448): 1.1%
Anorexia, % ([1]; Grades 1-4, N = 2448): 1.5%
Arthralgia/Arthritis, % ([1]; Grades 1-4, N = 2448): 25.2%
Back pain, % ([1]; Grades 1-4, N = 2448): 5.1%
Bone Pain, % ([1]; Grades 1-4, N = 2448): 5.0%
Breast Pain, % ([1]; Grades 1-4, N = 2448): 2.0%
Cataract, % ([1]; Grades 1-4, N = 2448): 2.0%
Constipation, % ([1]; Grades 1-4, N = 2448): 2.0%
Depression, % ([1]; Grades 1-4, N = 2448): 4.9%
Dizziness/Light headedness, % ([1]; Grades 1-4, N = 2448): 3.4%
Edema, % ([1]; Grades 1-4, N = 2448): 6.7%
Fatigue (Lethargy, Malaise, Asthenia), % ([1]; Grades 1-4, N = 2448): 9.6%
Headache, % ([1]; Grades 1-4, N = 2448): 4.3%
Hot Flashes/Flushes, % ([1]; Grades 1-4, N = 2448): 33.5%
Hypercholesterolemia, % ([1]; Grades 1-4, N = 2448): 52.3%
Myalgia, % ([1]; Grades 1-4, N = 2448): 8.9%
Myocardial Ischemia, % ([1]; Grades 1-4, N = 2448): 0.2%
Nausea, % ([1]; Grades 1-4, N = 2448): 11.6%
Night Sweats, % ([1]; Grades 1-4, N = 2448): 25.2%
Osteopenia, % ([1]; Grades 1-4, N = 2448): 3.6%
Osteoporosis NOS, % ([1]; Grades 1-4, N = 2448): 5.1%
Other Endometrial Disorders, % ([1]; Grades 1-4, N = 2448): <0.1%
Pain in extremity, % ([1]; Grades 1-4, N = 2448): 4.2%
Vaginal Bleeding, % ([1]; Grades 1-4, N = 2448): 5.2%
Vomiting, % ([1]; Grades 1-4, N = 2448): 3.3%
Weight Decrease, % ([1]; Grades 1-4, N = 2448): 5.7%
Weight Increase, % ([1]; Grades 1-4, N = 2448): 13.8%
Bone Fractures, % [1, 2]: 14.6%
Myocardial Infarction, % [1, 2]: 1.0%
Second Malignancies, % [1, 2]: 2.2%
Thromboembolic Event, % [1, 2]: 2.1%
Bone Fractures, % [1, 3]: 10.1%
Myocardial Infarction, % [1, 3]: 1.5%
Second Malignancies, % [1, 3]: 4.2%
Thromboembolic Event, % [1, 3]: 2.9%
Anorexia, % ([1]; Grades 3-4, N = 2448): <0.1%
Arthralgia/Arthritis, % ([1]; Grades 3-4, N = 2448): 3.5%
Back pain, % ([1]; Grades 3-4, N = 2448): 0.3%
Bone Pain, % ([1]; Grades 3-4, N = 2448): 0.2%
Breast Pain, % ([1]; Grades 3-4, N = 2448): <0.1%
Cataract, % ([1]; Grades 3-4, N = 2448): 0.7%
Constipation, % ([1]; Grades 3-4, N = 2448): 0.1%
Depression, % ([1]; Grades 3-4, N = 2448): 0.7%
Dizziness/Light headedness, % ([1]; Grades 3-4, N = 2448): <0.1%
Edema, % ([1]; Grades 3-4, N = 2448): 0.1%
Fatigue (Lethargy, Malaise, Asthenia), % ([1]; Grades 3-4, N = 2448): 0.2%
Headache, % ([1]; Grades 3-4, N = 2448): 0.4%
Hypercholesterolemia, % ([1]; Grades 3-4, N = 2448): 0.4%
Myalgia, % ([1]; Grades 3-4, N = 2448): 0.7%
Nausea, % ([1]; Grades 3-4, N = 2448): 0.2%
Osteoporosis NOS, % ([1]; Grades 3-4, N = 2448): 0.4%
Pain in extremity, % ([1]; Grades 3-4, N = 2448): 0.1%
Vaginal Bleeding, % ([1]; Grades 3-4, N = 2448): <0.1%
Vomiting, % ([1]; Grades 3-4, N = 2448): 0.1%
Weight Decrease, % ([1]; Grades 3-4, N = 2448): 0.3%
Weight Increase, % ([1]; Grades 3-4, N = 2448): 1.1%
SMILES: N#Cc1ccc(C(c2ccc(C#N)cc2)n2cncn2)cc1 [Femara, Letrozole]
Endometrial proliferation Disorders, % ([1]; Grades 1-4, N = 2448): 0.3%
Pts with any adverse event, % ([1]; Grades 1-4, N = 2448): 94.4%
Vaginal Irritation, % ([1]; Grades 1-4, N = 2448): 4.5%
Cerebrovascular Accident, % [1, 2]: 2.1%
Other Cardiovascular1, % [1, 2]: 10.6%
Cerebrovascular Accident, % [1, 3]: 2.9%
Other Cardiovascular1, % [1, 3]: 12.7%
Pts with any adverse event, % ([1]; Grades 3-4, N = 2448): 25.9%
Vaginal Irritation, % ([1]; Grades 3-4, N = 2448): <0.1%
